Patent US20230212163A1, “2-(HET)ARYL-SUBSTITUTED CONDENSED HETEROCYCLIC DERIVATIVES AS PEST CONTROL AGENTS” (Bayer Aktiengesellschaft, priority 2020, published 2023)

Key:
Format in all cases: in vivo
Nezara viridula = Nezara viridula spray test; details: Nezara viridula, 96 h, application rate 500 g/ha, after 4 days
Description: [table] To produce a suitable active compound formulation, 1 part by weight of active compound is dissolved using the stated parts by weight of solvent and made up with water containing an emulsifier concentration of 1000 ppm until the desired concentration is attained. To produce further test concentrations, the formulation is diluted with emulsifier-containing water. Barley plants (Hordeum vulgare) are sprayed with an active compound formulation of the desired concentration and are infected with larvae of the Southern green shield bug (Nezara viridula). After 4 days, the efficacy in % is determined. 100% means that all of the shield bugs have been killed; 0% means that none of the shield bugs have been killed.

Diabrotica balteata = Diabrotica balteata spray test; details: Diabrotica balteata, 168 h, after 7 days; for pest or weed control at 20 g/ha: application rate 20 g/ha; for pest or weed control at 100 g/ha: application rate 100 g/ha; for pest or weed control at 500 g/ha: application rate 500 g/ha (=160 μg/cavity)
Description: [table] To produce a suitable active compound formulation, 1 part by weight of active compound is dissolved using the stated parts by weight of solvent and made up with water containing an emulsifier concentration of 1000 ppm until the desired concentration is attained. To produce further test concentrations, the formulation is diluted with emulsifier-containing water. Pre-swollen wheat grains (Triticum aestivum) are incubated in a multiwell plate filled with agar and a little water for one day (5 seed grains per cavity). The germinated wheat grains are sprayed with an active compound formulation of the desired concentration. Subsequently, each cavity is infected with 10-20 beetle larvae of Diabrotica balteata. After 7 days, the efficacy in % is determined. 100% means that all wheat plants have grown as in the untreated, uninfected control; 0% means that no wheat plant has grown.

Spodoptera frugiperda = Spodoptera frugiperda spray test (maize leaf discs); details: Spodoptera frugiperda, foliar, 168 h, application rate 100 g/ha, after 7 days
Description: [table] To produce a suitable active compound formulation, 1 part by weight of active compound is dissolved using the stated parts by weight of solvent and made up with water containing an emulsifier concentration of 1000 ppm until the desired concentration is attained. To produce further test concentrations, the formulation is diluted with emulsifier-containing water. Leaf discs of maize (Zea mays) are sprayed with an active compound formulation of the desired concentration and, after drying, populated with caterpillars of the fall armyworm (Spodoptera frugiperda). After 7 days, the efficacy in % is determined. 100% means that all the caterpillars have been killed; 0% means that no caterpillar has been killed.

Row | Compound | pest or weed control at 500 g/ha (Nezara viridula) [%] | pest or weed control at 20 g/ha (Diabrotica balteata) [%] | pest or weed control at 100 g/ha (Spodoptera frugiperda) [%] | pest or weed control at 100 g/ha (Diabrotica balteata) [%] | pest or weed control at 500 g/ha (Diabrotica balteata; read-out: efficacy) [%] | pest or weed control at 31.25 g/ha (Diabrotica balteata; application rate 31.25 g/ha (=10 μg/cavity), read-out: efficacy) [%] | pest or weed control at 125 g/ha (Diabrotica balteata; application rate 125 g/ha (=40 μg/cavity), read-out: efficacy) [%]
1 | CCS(=O)(=O)c1ccc(-n2ncn(-c3ccc(F)cc3)c2=O)nc1-c1nc2cc(C(F)(F)F)ccc2o1 [Example I-36] | 100 |  |  |  |  |  | 
2 | CCS(=O)(=O)c1ccc(-n2ncn(-c3ccc(Br)cc3)c2=O)nc1-c1nc2cc(S(=O)(=O)C(F)(F)Cl)ccc2o1 [Example I-09] |  | 80 | 100 |  |  |  | 
3 | CCS(=O)(=O)c1ccc(-n2ncn(-c3cccc(C4(C#N)CC4)c3)c2=O)nc1-c1nc2cc(OC(F)(F)C(F)(F)F)ccc2o1 [Example I-31] |  | 100 | 100 |  |  |  | 
4 | CCS(=O)(=O)c1ccc(-n2ncn(-c3ccc(Br)cc3)c2=O)nc1-c1nc2cc(OC(F)(F)C(F)(F)F)ccc2o1 [Example I-23] |  |  | 100 | 100 |  |  | 
5 | CCS(=O)(=O)c1ccc(-n2ncn(C3CC3)c2=O)nc1-c1nc2cc(C(F)(F)C(F)(F)F)ccc2o1 [Example I-50] |  | 100 | 100 | 100 |  |  | 
6 | CCS(=O)(=O)c1ccc(-n2ncn(-c3ccc(C#N)c(Cl)c3)c2=O)nc1-c1nc2cc(S(=O)(=O)C(F)(F)F)ccc2o1 [Example I-28] |  | 100 | 100 |  |  |  | 
7 | CCS(=O)(=O)c1ccc(-n2ncn(-c3cccc(Cl)c3)c2=O)nc1-c1nc2cc(OC(F)(F)C(F)(F)F)ccc2o1 [Example I-25] |  | 100 | 100 | 100 |  |  | 
8 | CCS(=O)(=O)c1ccc(-n2ncn(-c3ccc(C#N)cc3)c2=O)nc1-c1nc2cc(S(=O)(=O)C(F)(F)Cl)ccc2o1 [Example I-10] |  | 80 |  | 100 | 100 |  | 
9 | CCS(=O)(=O)c1ccc(-n2ncn(-c3ccc(Cl)c(Br)c3)c2=O)nc1-c1nc2cc(S(=O)(=O)C(F)(F)F)ccc2o1 [Example I-19] |  | 100 | 100 | 100 |  |  | 
10 | CCS(=O)(=O)c1ccc(-n2ncn(-c3cncc(F)c3)c2=O)nc1-c1nc2cc(S(=O)(=O)C(F)(F)F)ccc2o1 [Example I-40] |  |  | 100 | 100 |  |  | 
11 | CCS(=O)(=O)c1ccc(-n2ncn(-c3ccc(Cl)cc3)c2=O)cc1-c1nc2cc(Br)ccc2o1 [Example I-53] |  |  | 100 | 100 |  |  | 
12 | CCS(=O)(=O)c1ccc(-n2ncn(C3CCCC3)c2=O)nc1-c1nc2cc(C(F)(F)C(F)(F)F)ccc2o1 [Example I-38] |  |  | 100 |  |  |  | 
13 | CCS(=O)(=O)c1ccc(-n2ncn(-c3ccc(I)cc3)c2=O)nc1-c1nc2cc(S(=O)(=O)C(F)(F)F)ccc2o1 [Example I-12] |  | 100 | 100 | 100 | 100 |  | 
14 | CCS(=O)(=O)c1ccc(-n2ncn(-c3ccc(F)cc3)c2=O)nc1-c1nc2cc(OC(F)(F)C(F)(F)F)ccc2o1 [Example I-22] |  | 100 | 100 | 100 |  |  | 
15 | CCS(=O)(=O)c1ccc(-n2ncn(-c3ccc(F)cc3)c2=O)nc1-c1nc2cc(S(=O)(=O)C(F)(F)Cl)ccc2o1 [Example I-07] |  |  | 100 |  | 100 | 100 | 100
16 | CCS(=O)(=O)c1ccc(-n2ncn(-c3cccc(Br)c3)c2=O)nc1-c1nc2cc(S(=O)(=O)C(F)(F)F)ccc2o1 [Example I-15] |  | 100 | 100 | 100 | 100 |  | 
17 | CCS(=O)(=O)c1ccc(-n2ncn(-c3cccc(Br)c3)c2=O)nc1-c1nc2cc(OC(F)(F)C(F)(F)F)ccc2o1 [Example I-26] |  | 100 | 100 | 100 |  |  | 
18 | CCS(=O)(=O)c1ccc(-n2ncn(-c3ccc(F)cc3)c2=O)nc1-c1nc2cc(OC(F)(F)F)ccc2o1 [Example I-33] | 100 |  |  |  |  |  | 
